We go through 2 compounds from paper PMC7504721, “Targeting the Initiator Protease of the Classical Pathway of Complement Using Fragment-Based Drug Discovery” (Molecules, 2020).

The test has as its system classical pathway. Briefly: Classical pathway-specific ELISA-based complement inhibition assay (C4b deposition, IgM-coated plate, human serum). Type of test: biochemical. Particulars: for pIC50: non-linear regression; for inhibition of classical pathway (C4b deposition) relative to non-binding control compound: single 500 µM concentration, triplicate, 1% normal human serum, unpaired t-test p < 0.05. The method, then: To carry out classical pathway ELISA-based inhibition assays, IgM was dissolved in coating buffer (100 mM Na2CO3/NaHCO3, pH 9.6) to a final concentration of 3 µg/mL and was dispensed into 96-well plates at 100 µL per well. Mannan was dissolved to 2 µg/mL and lipopolysaccharides (LPS) were dissolved to 10 µg/mL in coating buffer for use in lectin and alternative pathway inhibition assays, respectively. Immobilization was allowed to proceed overnight at 25 °C. The immobilization reagent was then removed, followed by three washes in washing buffer (50 mM Tris pH 8.0, 200 mM NaCl, 0.05% (v/v) Tween-20), and blocked using 100 µL of 1% (w/v) bovine serum albumin in PBS-T for 1 h at 37°C. Blocking buffer was removed and plates were washed three times in washing buffer. Next, 500 µM of each compound, 5% (v/v) DMSO, and 1% (v/v) normal human serum (Innovative Research) (final concentrations) were dissolved in classical/lectin pathway ELISA buffer (20 mM HEPES (pH 7.3), 0.1% (w/v) gelatin, 140 mM NaCl, 2 mM CaCl2, 0.5 mM MgCl2) and added to the IgM-coated plate for 1 h at 37 °C. For the lectin pathway-specific ELISAs shown in Figure 5D, we used C1q-depleted serum from CompTech at 2% (v/v) and thus the classical pathway assays for this analysis were also performed using serum from CompTech at 2% (v/v). For the alternative pathway, 20% (v/v) normal human serum (CompTech) (final concentration) and alternative pathway ELISA buffer (20 mM HEPES, (pH 7.5), 0.1% (w/v) gelatin, 140 mM NaCl, 2 mM CaCl2, 0.5 mM MgCl2) were used in place of classical/lectin pathway ELISA buffer. Plates were then washed three times in wash buffer and each well was filled with 100 µL of α-C4 (HYB 162-02, Santa Cruz Biotechnology) diluted 1:300 for classical and lectin pathway assays and 100 µL of C3b (WM-1, Sigma) diluted 1:300 for alternative pathway assays. Plates were again incubated at 37 °C for 1 h, washed three times, filled with 100 µL of HRP-conjugated goat-α-mouse secondary antibody (diluted 1:3000) (Thermo Scientific, Waltham, MA, USA), and rocked gently for 1 h at 25 °C. After three more washes, 50 µl of substrate (1-step Ultra TMB, Thermo Scientific, Waltham, MA, USA) was added to each well and rocked for 15 min in the dark at 25 °C. The reaction was stopped with 50 µL of 0.16 M sulfuric acid, and the plate was read at 450 nm using an EnSight multimode plate reader (Perkin-Elmer). Each column contained a positive control for full complement activity (5% (v/v) blank DMSO with 1% (v/v) serum) and a negative control for no complement activity (5% (v/v) blank DMSO and no serum). Positive controls (1% (v/v) serum, no inhibitor) were defined as 100% C4b or C3b signal whereas negative controls (no serum) were defined as 0% C4b or C3b signal for each column. Compounds that inhibited complement deposition relative to the control were then evaluated using the same assay setup across a two-fold variable concentration series for each compound (7.8–500 µM). […] All experiments were performed no less than three times.
Statistical analyses were performed using GraphPad Prism version 8. For complement inhibition assays, measures of statistical significance for single-dose experiments were assessed using unpaired Student’s t-tests compared to no inhibitor controls (pathway ELISAs) or non-binding control compounds (classical pathway ELISA). Statistical significance was defined as p < 0.05. Calculation of IC50 values from dose-dependent complement assays were obtained by non-linear regression analysis using a using an inhibitor vs. response model and with 95% confidence intervals reported. For non-linear regression analyses, the top and bottom of each curve were constrained to 100 and 0, respectively.

The mark [1] stands for this setting: dose-response 7.8–500 µM, top and bottom constrained to 100 and 0, read-out: IC50, classical pathway-specific ELISA.
[2] abbreviates: n = 9 (CMP-1611), n = 7 (CMP-1696), read-out: 95% confidence interval of IC50, classical pathway-specific ELISA.

pIC50: −log10 of the molar value. Like-named read-outs stand apart in the source and are kept apart here.

`CN(C)c1cc(N2CCCC(N)C2)ncn1` (stereo not drawn) [CMP-1611]: the “inhibition of classical pathway (C4b deposition) relative to non-binding control compound” value was “statistically significant inhibitory activity”. For the same compound, the negative logarithm of the IC50 (pIC50) under setting [1] is 3.18. The negative logarithm of the IC50 (pIC50) under setting [2] was 3.10 to 3.25.

Take `COCc1nc(-c2ccc(OC3CNC3)cc2)no1` [CMP-1696]: the “inhibition of classical pathway (C4b deposition) relative to non-binding control compound” value was “statistically significant inhibitory activity”. Moreover, under setting [1], the pIC50 is 3.28. The pIC50 under setting [2] was 3.17 to 3.39.
